Literature values, collected in patent US9358209B2, “Econazole composition and methods of treatment therewith” (Exeltis USA Dermatology, Inc., priority 2010, dated 2016).

How the values were obtained:
[1] = Liao et al., Yao Xue Xue Bao 28(1):22-7 (1993)
dermatophytes and yeasts = settings: most strains of E. floccosum, M. audouinii, M. canis, M. gypseum, T. mentagrophytes, T. rubrum, T. tonsurans, C. albicans, M. furfur

Clc1ccc(CO[C@@H](Cn2ccnc2)c2ccc(Cl)cc2Cl)cc1 [(R)-(−)-econazole]
antifungal activity relative to other stereoisomer [1]: greater antifungal activity

Clc1ccc(COC(Cn2ccnc2)c2ccc(Cl)cc2Cl)cc1 (centres unmarked) [Econazole nitrate]
activity against dermatophytes and yeasts (dermatophytes and yeasts): has shown activity
